Values of other authors in article PMC11238383, “A review on the cultivation, bioactive compounds, health-promoting factors and clinical trials of medicinal mushrooms Taiwanofungus camphoratus, Inonotus obliquus and Tropicoporus linteus” (Fungal Biology and Biotechnology, 2024).
pIC50: −log10 of the molar value. In brackets after ≈: the same amount, converted by molar mass. Where two headings read alike, the source gives them in different places.

How the values were obtained:
[1] = tested on: inducible-nitric oxide synthase (iNOS) protein; set-up: method as in PMID 33434790; conditions: ref [107]
[2] = set-up: method as in Zhang et al. [179]; conditions: DPPH assay; ref Zhang et al. [179]
[3] = set-up: method as in PMID 31891260; conditions: ref [61]
MDA-MB-231 cells = conditions: 10 µg/mL alone; ref [226]
P. gingivalis = conditions: ref [131], [132], [133]
normal cells (LO2) = conditions: ref [63]
[4] = tested on: human cancer cells (U251, HL60, SW480, and A549); conditions: ref [63]
[5] = for reducing power: ref [133]; for antioxidant activity: ref Lee et al. [226]
[6] = tested on: mouse melanoma and human lung cancer cells; set-up: method as in PMID 18239302; conditions: ref [135]
[7] = tested on: AGS, MCF-7, and PC3 cancer cells; set-up: method as in PMID 32899899; conditions: ref [95]
NO = tested on: NO; set-up: method as in Park et al. [99]; conditions: ref Park et al. [99]
H1N1 neuraminidase = conditions: ref [13]
aldose reductase = tested on: aldose reductase; set-up: method as in Lee et al. [136]; conditions: ref Lee et al. [136]
[8] = tested on: H2O2)-injured human neuroblastoma cells; set-up: method as in PMID 33084385; conditions: ref [108]
[9] = tested on: Polyinosinic-polycytidylic acid (poly IC)-induced RAW 264.7 cells
[10] = tested on: Severe acute respiratory syndrome coronavirus 2 (SARS-CoV-2) virus-infected HepG2 cells; set-up: method as in Li et al. [35], [38]; conditions: ref Li et al. [35], [38]
[11] = tested on: Oleic and palmitic acids (O/P) lipid accumulation-induced HepG2 cells; set-up: method as in Chiu et al. [138]; conditions: ref Chiu et al. [138]
MIN6N beta-cells = tested on: MIN6N beta-cells; set-up: method as in Lee et al. [235]; conditions: 10–70 uM, dose-dependent, ref Lee et al. [235]
[12] = tested on: glioblastoma-xenografted mice; set-up: method as in Yang et al. [70]; conditions: in vivo; ref Yang et al. [70]
human glioblastoma cells = tested on: human glioblastoma cells; set-up: method as in Yang et al. [70]; conditions: in vitro; ref Yang et al. [70]
U251 and MCF-7 = tested on: U251 and MCF-7; set-up: method as in PMID 31891260; conditions: ref [61]
[13] = tested on: High-fat diet-induced C57BL/6J mice; set-up: method as in Lin et al. [175]; conditions: ref Lin et al. [175]
[14] = tested on: High-fat diet-induced C57BL/6J mice; set-up: method as in Lin et al. [175]; conditions: ref Lin et al. [175]; remark: listed apart in the source
A549 and HeLa cell lines = conditions: ref [105]
[15] = tested on: human adenocarcinoma and human lung carcinoma cell lines; set-up: method as in doi:10.1016/j.jff.2020.104025; conditions: ref [97]
Influenza A H1N1 virus = tested on: Influenza A H1N1 virus; set-up: method as in Hwang et al. [13]; conditions: 10 uM; ref Hwang et al. [13]

Compound: inonotusol I
- interaction with iNOS protein [1]: capable of interacting with inducible-nitric oxide synthase (iNOS) protein

Compound: O=C1O[C@H]([C@@H](O)CO)C(O)=C1O [vitamin C, ascorbic acid]
- EC50 [2]: 6 µg/mL (≈ 34.1 µM)

Compound: antcamphorol I
- ROS scavenging [3]: ROS scavenging abilities

Compound: O=c1[nH]cc(F)c(=O)[nH]1 [5-fluorouracil]
- inhibition in cell growth (MDA-MB-231 cells): 12.6%

Compound: C=C1CCCC(C)(C)C1C=CC(C)=CC(=O)O (stereo not drawn) [( +)-γ-ionylideneacetic acid]
- antimicrobial activity (P. gingivalis): did not show any detectable activities

Compound: C=C(CC[C@@H](C)[C@H]1CC[C@@]2(O)C3=C(C(=O)C[C@]12C)[C@@]1(C)CCC(=O)[C@@H](C)[C@@H]1CC3=O)C(C)C(=O)OCC (stereo partly drawn) [Antcamphin Z]
- effect on normal cells (normal cells (LO2)): no significant effects on normal cells
- cytotoxicity [4]: potent cytotoxic activities

Compound: CC1=CC[C@@H]([C@@](C)(O)[C@@H]2C[C@H]2C(C)(C)O)CC1 [Phellilane L]
- antimicrobial activity (P. gingivalis): antimicrobial activities

Compound: phellilane H
- antimicrobial activity (P. gingivalis): did not show any detectable activities
- reducing power [5]: weak reducing power

Compound: C=C1CC(O)CC(C)(C)C1/C=C/C(C)=C/C(=O)O (stereo not drawn) [(2E,4E)-4′-Hydroxy-γ-ionylideneacetic acid]
- reducing power [5]: weak reducing power

Compound: C=C1CCCC(C)(C)[C@H]1[C@H]1O[C@@H]1/C(C)=C/C(=O)O [phellidene E]
- antimicrobial activity (P. gingivalis): did not show any detectable activities

Compound: C=C1CCCC(C)(C)C1/C=C/C(C)=C/C(=O)O (stereo not drawn) [(2E,4E)-γ-Ionylideneacetic acid]
- reducing power [5]: weak reducing power

Compound: O=c1oc(/C=C/c2ccc(O)c(O)c2)cc2oc(-c3ccc(O)c(O)c3)cc12 [Phellifuropyranone A]
- antiproliferative activity [6]: antiproliferative activity

Compound: CC(C)=CCC[C@@H](C(=O)O)[C@H]1CC[C@@]2(C)C3=C(CC[C@]12C)[C@@]1(C)CC[C@H](O)C(C)(C)[C@@H]1CC3 [trametenolic acid]
- anti-proliferative activity [7]: anti-proliferative activities
- NO inhibition (NO): NO-inhibiting effects

Compound: O=C1C=C(/C=C/c2ccc(O)c(O)c2)OC12C(c1cc3oc(=O)c4cc(O)c(O)cc4c3c(=O)o1)=Cc1cc(O)c(O)cc12 (stereo not drawn) [phelligridin G]
- antiproliferative activity [6]: antiproliferative activity

Compound: antroquinonol Y
- effect on normal cells (normal cells (LO2)): without affecting normal cells
- cytotoxicity [4]: significant cytotoxic effects

Compound: O=C(O)/C=C/c1ccc(O)c(O)c1 [Caffeic acid, caffeic acid]
- antioxidant activity [5]: Potent antioxidant activity, with higher antioxidant activity than BHA and Trolox in FRAP assay

Compound: CCOC(=O)C1=C[C@@H](OC(CC)CC)[C@H](NC(C)=O)[C@@H](N)C1 [Oseltamivir, reference compound]
- pIC50 (H1N1 neuraminidase): 4.19

Compound: O=c1oc2c(O)c(O)cc3c(=O)oc4c(O)c(O)cc1c4c23 [ellagic acid]
- aldose reductase inhibition (aldose reductase): capable of inhibiting aldose reductase

Compound: CC1=CC(=O)C2(O1)c1c(cc(/C=C/c3ccc(O)c(O)c3)oc1=O)OC2c1ccc(O)c(O)c1 (stereo not drawn) [inoscavin A]
- cell viability [8]: improve cell viabilities

Compound: CC1=CC(=O)[C@H](c2c(O)cc(/C=C/c3ccc(O)c(O)c3)oc2=O)[C@@H](c2ccc(O)c(O)c2)O1 [davallialactone]
- aldose reductase inhibition (aldose reductase): capable of inhibiting aldose reductase

Compound: 4-acetylantroquinonol B
- pIC50 ([9]; ref Tu et al. [186], read-out: IC50 of NO production): 6.24
- NO production ([9]; ref [72]): significantly inhibited

Compound: C=C1CCCC(C)(C)C1CC/C(C)=C/CO (single isomer, unassigned; (-)) [(-)-trans-γ-monocyclofarnesol]
- antimicrobial activity (P. gingivalis): antimicrobial effects

Compound: O=c1cc(O)cc(/C=C/c2ccc(O)c(O)c2)o1 [Hispidin, hispidin]
- ACE2 gene expression [10]: Reduced the expression of angiotensin-converting enzyme 2 (ACE2) gene
- lipid accumulation [11]: Significant reduction in lipid accumulation
- highest ROS scavenging activity (MIN6N beta-cells): 10–70 uM had notable reactive oxygen species (ROS) scavenging activity in a dose-dependent manner, with the highest activity being 65%
- highest ROS scavenging activity (MIN6N beta-cells; listed as hispidin): about 65%

Compound: COC1=C(OC)C(=O)C(C)=CC1=O [coenzyme Q0, 2,3-dimethoxy-5-methyl-1,4-benzoquinone]
- apoptosis and autophagic cell death [12]: inducing apoptosis and autophagic cell death
- apoptosis and autophagic cell death (human glioblastoma cells): inducing apoptosis and autophagic cell death

Compound: C/C=C(\CO)CC[C@@H](C)[C@H]1CC[C@H]2C3=C(C(=O)C[C@]12C)[C@@]1(C)CC[C@@H](O)[C@](C)(O)[C@@H]1C[C@@H]3O [antcamphorol C]
- cytotoxicity (U251 and MCF-7): cytotoxic activities

Compound: C=C(CC[C@@H](C(=O)O)[C@H]1CC[C@@]2(C)C3=C(CC[C@]12C)[C@@]1(C)CC[C@H](O)C(C)(C)[C@@H]1CC3)C(C)C [Eburicoic acid]
- AMPK phosphorylation, Akt, membrane GLUT4 [13]: Increase AMPK phosphorylation, Akt, and membrane GLUT4 level
- PPAR-α expression in the liver [14]: Increased expression of PPAR-α in the liver which facilitated fatty acid oxidation and the reduction of lipid levels

Compound: C[C@H](/C=C/C=O)[C@H]1CC[C@@]2(C)C3=C(CC[C@]12C)[C@@]1(C)CC[C@H](O)C(C)(C)[C@@H]1CC3 [inonotusane C]
- cytotoxicity (A549 and HeLa cell lines): cytotoxic activities

Compound: CC(C)(O)[C@H]1CC[C@H]([C@H]2CC[C@@]3(C)C4=C(CC[C@]23C)[C@@]2(C)CC[C@H](O)C(C)(C)[C@@H]2CC4)[C@H]1O [inonotsutriol A]
- NO inhibition (NO): NO-inhibiting effects

Compound: C=C(CC[C@@H](C)[C@H]1CC[C@H]2C3=C(C(=O)C[C@]12C)[C@@]1(C)CCC(=O)[C@@H](C)[C@@H]1C[C@H]3O)C(C)C [antcamphorol J]
- ROS scavenging [3]: ROS scavenging abilities

Compound: C=C(C)[C@@H]1CC[C@]2(C(=O)O)CC[C@]3(C)[C@H](CC[C@@H]4[C@@]5(C)CC[C@H](O)C(C)(C)[C@@H]5CC[C@]43C)[C@@H]12 [betulinic acid]
- proliferation [15]: inhibited the proliferation

Compound: CC(C)=CC[C@@H](O)[C@@H](C)[C@H]1CC[C@@]2(C)C3=C(CC[C@]12C)[C@@]1(C)CC[C@H](O)C(C)(C)[C@@H]1CC3 [Inotodiol]
- anti-proliferative activity [7]: anti-proliferative activities
- NO inhibition (NO): NO-inhibiting effects

Compound: C=C(CC[C@@H](C)[C@H]1CC[C@H]2C3=CC[C@H]4[C@H](C)[C@@H](O)CC[C@]4(C)C3=C[C@@H](O)[C@]12C)C(C)C [antcamphorol H]
- cytotoxicity (U251 and MCF-7): cytotoxic activities

Compound: inonotusol L
- interaction with iNOS protein [1]: capable of interacting with inducible-nitric oxide synthase (iNOS) protein

Compound: CC(C)(C)c1cc(O)ccc1O [tert-Butylhydroquinone (TBHQ), tert-Butylhydroquinone]
- EC50 [2]: 11.2 µg/mL (≈ 67.4 µM)

Compound: antcamphorol G
- ROS scavenging [3]: ROS scavenging abilities

Compound: C=C(C)[C@@H]1CC[C@]2(CO)CC[C@]3(C)[C@H](CC[C@@H]4[C@@]5(C)CC[C@H](O)C(C)(C)[C@@H]5CC[C@]43C)[C@@H]12 [betulin]
- proliferation [15]: inhibited the proliferation

Compound: CC(=O)C=Cc1ccc(O)c(O)c1 [4-(3,4-Dihydroxyphenyl)-3-buten-2-one]
- pIC50 (H1N1 neuraminidase): 4.28
- neuraminidase activity (H1N1 neuraminidase): inhibit neuraminidase activity
- antioxidant activity [5]: Potent antioxidant activity, with higher antioxidant activity than BHA and Trolox in FRAP assay
- visible cytopathic effects (Influenza A H1N1 virus): 10 uM of both inhibited the formation of visible cytopathic effects, with IC50 values lower than Oseltamivir
